Assay results published in PubChem BioAssay AID328 (DTP/NCI, 2004).
Toxic doses and inconclusive results are not listed.

Tested on: BDF1 mice, P388 leukemia ip, median survival T/C
Experiment: NCI In Vivo Anticancer Drug Screen. Data for tumor model P388 Leukemia (intraperitoneal) in B6D2F1 (BDF1) mice
Conditions: endpoint: median survival time, higher = longer survival
Procedure: The antitumor activity of compounds was measured in mice bearing transplantable tumors. Survival or tumor size were measured and the results are expressed as the measurement made in the treated group (T) divided by the measurement made in the vehicle treated control group (C). The tumor model used in this assay is P388 Leukemia (intraperitoneal) in B6D2F1 (BDF1) mice

[1] = dose: 25.0 mg/kg/injection, schedule: Q04DX003 (ip), vehicle: saline
[2] = dose: 50.0 mg/kg/injection, schedule: Q01DX009 (ip), vehicle: saline with Tween-80
[3] = dose: 100.0 mg/kg/injection, schedule: Q01DX009 (ip), vehicle: saline with Tween-80
[4] = dose: 100.0 mg/kg/injection, schedule: Q04DX003 (ip), vehicle: saline with Tween-80
[5] = dose: 200.0 mg/kg/injection, schedule: Q01DX009 (ip), vehicle: saline with Tween-80
[6] = dose: 200.0 mg/kg/injection, schedule: Q04DX003 (ip), vehicle: saline with Tween-80
[7] = dose: 400.0 mg/kg/injection, schedule: Q01DX009 (ip), vehicle: saline with Tween-80
[8] = dose: 400.0 mg/kg/injection, schedule: Q04DX003 (ip), vehicle: saline with Tween-80
[9] = dose: 12.5 mg/kg/injection, schedule: Q04DX003 (ip), vehicle: saline
[10] = dose: 25.0 mg/kg/injection, schedule: Q01DX009 (ip), vehicle: saline
[11] = dose: 50.0 mg/kg/injection, schedule: Q04DX003 (ip), vehicle: saline
[12] = dose: 100.0 mg/kg/injection, schedule: Q04DX003 (ip), vehicle: Klucel (hydroxypropylcellulose) (HPC)
[13] = dose: 200.0 mg/kg/injection, schedule: Q04DX003 (ip), vehicle: Klucel (hydroxypropylcellulose) (HPC)
[14] = dose: 400.0 mg/kg/injection, schedule: Q04DX003 (ip), vehicle: Klucel (hydroxypropylcellulose) (HPC)

In the case of `O=P(N1CCCCC1)(N1CC1)N1CC1`, the T/C (dose: 2.2 mg/kg/injection, schedule: Q01DX009 (ip), vehicle: saline) is reported as 103 % of control, the T/C (dose: 3.3 mg/kg/injection, schedule: Q01DX009 (ip), vehicle: saline) is reported as 118 % of control and the T/C (dose: 7.5 mg/kg/injection, schedule: Q01DX009 (ip), vehicle: saline) is reported as 185 % of control. For the same compound, the T/C [1] was 225 % of control.
In the case of `CCOc1nc(=O)n(CC(=O)c2ccc(Cl)s2)cc1F`, the T/C [2] is reported as 114 % of control, the T/C [3] is reported as 103 % of control and the T/C [4] is reported as 110 % of control. For the same compound, the T/C [5] was 99 % of control, the T/C [6] was 111 % of control and the T/C [7] was 87 % of control. The T/C [8] was 104 % of control.
`CCOC(=O)c1ccc(NS(=O)(=O)c2ccc(C)cc2)cc1` was tested, and the T/C [3] was 106 % of control, the T/C [5] was 106 % of control and the T/C [7] was 88 % of control.
In the case of `COc1c(I)cc(/C=C(\C)[N+](=O)[O-])cc1I`, the T/C [2] is reported as 110 % of control and the T/C [3] is reported as 112 % of control.
`F` was tested, and the T/C (dose: 0.25 mg/kg/injection, schedule: Q01DX009 (ip), vehicle: water) was 113 % of control, the T/C (dose: 0.5 mg/kg/injection, schedule: Q01DX009 (ip), vehicle: water) was 95 % of control and the T/C (dose: 0.62 mg/kg/injection, schedule: Q01DX009 (ip), vehicle: water) was 86 % of control. The T/C (dose: 1.25 mg/kg/injection, schedule: Q01DX009 (ip), vehicle: water) was 100 % of control, the T/C (dose: 2.5 mg/kg/injection, schedule: Q01DX009 (ip), vehicle: water) was 95 % of control and the T/C (dose: 5.0 mg/kg/injection, schedule: Q01DX009 (ip), vehicle: water) was 100 % of control. For the same compound, the T/C (dose: 6.25 mg/kg/injection, schedule: Q01DX009 (ip), vehicle: water) was 100 % of control, the T/C (dose: 6.25 mg/kg/injection, schedule: Q04DX003 (ip), vehicle: saline) was 100 % of control and the T/C (dose: 12.5 mg/kg/injection, schedule: Q01DX009 (ip), vehicle: saline) was 100 % of control. The T/C (dose: 12.5 mg/kg/injection, schedule: Q01DX009 (ip), vehicle: water) was 100 % of control, the T/C [9] was 100 % of control and the T/C [10] was 100 % of control. The T/C (dose: 25.0 mg/kg/injection, schedule: Q01DX009 (ip), vehicle: water) was 95 % of control, the T/C [1] was 100 % of control and the T/C (dose: 33.0 mg/kg/injection, schedule: Q04DX003 (ip), vehicle: saline) was 104 % of control. The T/C [11] was 95 % of control.
With `O=[N+]([O-])c1ccc(-[n+]2ccccc2)c([N+](=O)[O-])c1` the T/C (dose: 37.5 mg/kg/injection, schedule: Q01DX009 (ip), vehicle: saline) was 118 % of control, the T/C (dose: 75.0 mg/kg/injection, schedule: Q01DX009 (ip), vehicle: saline) was 122 % of control and the T/C (dose: 150.0 mg/kg/injection, schedule: Q01DX009 (ip), vehicle: saline) was 104 % of control.
In the case of `O=C1N(Cl)C(=O)C(c2ccc(C(F)(F)F)cc2)(c2ccc(C(F)(F)F)cc2)N1Cl`, the T/C (dose: 1.56 mg/kg/injection, schedule: Q01DX009 (ip), vehicle: saline with Tween-80) is reported as 104 % of control, the T/C (dose: 3.12 mg/kg/injection, schedule: Q01DX009 (ip), vehicle: saline with Tween-80) is reported as 100 % of control and the T/C (dose: 6.25 mg/kg/injection, schedule: Q01DX009 (ip), vehicle: saline with Tween-80) is reported as 100 % of control. The T/C (dose: 12.5 mg/kg/injection, schedule: Q01DX009 (ip), vehicle: saline with Tween-80) was 109 % of control, the T/C [4] was 100 % of control and the T/C [6] was 109 % of control.
For `OC(C#CC(O)c1ccccc1)c1ccccc1` (centres undefined), the T/C (dose: 100.0 mg/kg/injection, schedule: Q04DX003 (ip), vehicle: saline) was 100 % of control and the T/C (dose: 200.0 mg/kg/injection, schedule: Q04DX003 (ip), vehicle: saline) was 104 % of control.
For `COc1ccc(C(=O)CC(C(=O)O)c2ccc3c(c2)OCO3)cc1OC` (centres undefined), the T/C [3] was 109 % of control, the T/C [5] was 100 % of control and the T/C [7] was 104 % of control.
`CN1CCC2(CC1)c1ccccc1-c1ccccc12` was tested, and the T/C [2] was 109 % of control and the T/C [3] was 100 % of control.
In the case of `CCN(CC)c1c(C)nnc2c(-c3ccccc3)cnn12`, the T/C (dose: 50.0 mg/kg/injection, schedule: Q04DX003 (ip), vehicle: saline with Tween-80) is reported as 108 % of control, the T/C [4] is reported as 100 % of control and the T/C [6] is reported as 104 % of control.
With `CC1CCS(=O)(=O)CC1.[Cl][Hg][Cl]` the T/C (dose: 0.3 mg/kg/injection, schedule: Q01DX009 (ip), vehicle: saline) was 95 % of control, the T/C (dose: 0.6 mg/kg/injection, schedule: Q01DX009 (ip), vehicle: saline) was 100 % of control and the T/C (dose: 1.2 mg/kg/injection, schedule: Q01DX009 (ip), vehicle: saline) was 95 % of control.
In the case of `COc1cccc(C(=O)O)c1OS(=O)(=O)c1ccccc1`, the T/C (dose: 100.0 mg/kg/injection, schedule: Q01DX009 (ip), vehicle: Klucel (hydroxypropylcellulose) (HPC)) is reported as 104 % of control, the T/C [12] is reported as 110 % of control and the T/C (dose: 200.0 mg/kg/injection, schedule: Q01DX009 (ip), vehicle: Klucel (hydroxypropylcellulose) (HPC)) is reported as 95 % of control. The T/C [13] was 90 % of control, the T/C (dose: 400.0 mg/kg/injection, schedule: Q01DX009 (ip), vehicle: Klucel (hydroxypropylcellulose) (HPC)) was 90 % of control and the T/C [14] was 105 % of control.
With `COC(=O)c1ccccc1NC(=O)C(Cl)Cl` the T/C (dose: 75.0 mg/kg/injection, schedule: Q04DX003 (ip), vehicle: olive oil, sesame oil, peanut oil) was 95 % of control, the T/C (dose: 100.0 mg/kg/injection, schedule: Q01DX001 (ip), vehicle: olive oil, sesame oil, peanut oil) was 95 % of control and the T/C (dose: 150.0 mg/kg/injection, schedule: Q04DX003 (ip), vehicle: olive oil, sesame oil, peanut oil) was 95 % of control. The T/C (dose: 200.0 mg/kg/injection, schedule: Q01DX001 (ip), vehicle: olive oil, sesame oil, peanut oil) was 90 % of control, the T/C (dose: 300.0 mg/kg/injection, schedule: Q04DX003 (ip), vehicle: olive oil, sesame oil, peanut oil) was 100 % of control and the T/C (dose: 400.0 mg/kg/injection, schedule: Q01DX001 (ip), vehicle: olive oil, sesame oil, peanut oil) was 100 % of control.
With `O=C(CN1C(=O)c2ccccc2C1=O)c1ccc(C(F)(F)F)cc1` the T/C (dose: 50.0 mg/kg/injection, schedule: Q01DX001 (ip), vehicle: Klucel (hydroxypropylcellulose) (HPC)) was 96 % of control, the T/C (dose: 100.0 mg/kg/injection, schedule: Q01DX001 (ip), vehicle: Klucel (hydroxypropylcellulose) (HPC)) was 105 % of control and the T/C (dose: 200.0 mg/kg/injection, schedule: Q01DX001 (ip), vehicle: Klucel (hydroxypropylcellulose) (HPC)) was 88 % of control.
With `C/C(=N\N(C)C(=S)Nc1ccccc1)c1ccccn1` the T/C [2] was 95 % of control, the T/C [3] was 106 % of control and the T/C [5] was 98 % of control.
For `COC(=O)C(Br)C(OC)c1ccc(C)cc1` (centres undefined), the T/C [3] was 100 % of control, the T/C [5] was 100 % of control and the T/C [7] was 95 % of control.
`C(=N\OCCc1ccccc1)/c1cccnc1` was tested, and the T/C (dose: 100.0 mg/kg/injection, schedule: Q01DX009 (ip), vehicle: saline sonified) was 100 % of control and the T/C (dose: 200.0 mg/kg/injection, schedule: Q01DX009 (ip), vehicle: saline sonified) was 110 % of control.
For `C1=CC=CCC=C1`, the T/C [9] was 100 % of control, the T/C [10] was 150 % of control and the T/C [1] was 113 % of control. For the same compound, the T/C (dose: 50.0 mg/kg/injection, schedule: Q01DX009 (ip), vehicle: saline) was 111 % of control and the T/C [11] was 109 % of control.
In the case of `CCOC(=O)C(=O)Cc1cnc2ccccc2n1`, the T/C [12] is reported as 86 % of control, the T/C [13] is reported as 86 % of control and the T/C [14] is reported as 90 % of control.
For `NC(Cc1ccc(Cl)cc1)C(=O)O` (centres undefined), the T/C (dose: 200.0 mg/kg/injection, schedule: Q01DX010 (im), vehicle: other) was 90 % of control, the T/C (dose: 400.0 mg/kg/injection, schedule: Q01DX010 (im), vehicle: other) was 90 % of control and the T/C (dose: 600.0 mg/kg/injection, schedule: Q01DX010 (im), vehicle: other) was 90 % of control.
For `Cc1ccccc1N=C(N)Nc1ccccc1C`, the T/C (dose: 6.25 mg/kg/injection, schedule: Q04DX003 (ip), vehicle: saline with Tween-80) was 105 % of control, the T/C (dose: 12.5 mg/kg/injection, schedule: Q04DX003 (ip), vehicle: saline with Tween-80) was 94 % of control and the T/C (dose: 25.0 mg/kg/injection, schedule: Q04DX003 (ip), vehicle: saline with Tween-80) was 100 % of control.
`O=C1c2ccccc2C(=O)N1c1c2ccccc2cc2ccccc12` was tested, and the T/C [4] was 100 % of control, the T/C [6] was 104 % of control and the T/C [8] was 100 % of control.
